Results taken from PubChem BioAssay AID330 (DTP/NCI, 2004).
Several values for one entry are separate records, joined by “and”; a condition that tells them apart may be missing. Identical values can stand only once. Inconclusive results and toxic doses are left out. Rule for the calls: active = survival T/C of 150% or more; inactive = T/C below 125% in these data.

Tested on: P388 leukemia ip, CD2F1 mice, survival T/C
Experiment: NCI In Vivo Anticancer Drug Screen. Data for tumor model P388 Leukemia (intraperitoneal) in CD2F1 (CDF1) mice
Conditions: endpoint: median survival time, higher = longer survival
Summary of the method: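 Mice carrying the transplanted tumor received test compound or vehicle. Survival was recorded in each group, and the value is the treated-group measurement divided by that of the vehicle-treated control group.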

[1] = dose: 30.0 mg/kg/injection, schedule: Q01DX005 (ip), vehicle: saline
[2] = dose: 50.0 mg/kg/injection, schedule: Q01DX005 (ip), vehicle: Klucel (hydroxypropylcellulose) (HPC)
[3] = dose: 100.0 mg/kg/injection, schedule: Q01DX005 (ip), vehicle: Klucel (hydroxypropylcellulose) (HPC)
[4] = dose: 200.0 mg/kg/injection, schedule: Q01DX005 (ip), vehicle: Klucel (hydroxypropylcellulose) (HPC)
[5] = dose: 50.0 mg/kg/injection, schedule: Q01DX005 (ip), vehicle: saline with Tween-80
[6] = dose: 100.0 mg/kg/injection, schedule: Q01DX005 (ip), vehicle: saline with Tween-80
[7] = dose: 200.0 mg/kg/injection, schedule: Q01DX005 (ip), vehicle: saline with Tween-80
[8] = dose: 60.0 mg/kg/injection, schedule: Q01DX005 (ip), vehicle: saline with Tween-80
[9] = dose: 6.25 mg/kg/injection, schedule: Q01DX005 (ip), vehicle: saline with Tween-80
[10] = dose: 12.5 mg/kg/injection, schedule: Q01DX005 (ip), vehicle: saline with Tween-80
[11] = dose: 25.0 mg/kg/injection, schedule: Q01DX005 (ip), vehicle: saline with Tween-80
[12] = dose: 50.0 mg/kg/injection, schedule: Q01DX009 (ip), vehicle: saline with Tween-80
[13] = dose: 100.0 mg/kg/injection, schedule: Q01DX009 (ip), vehicle: saline with Tween-80
[14] = dose: 200.0 mg/kg/injection, schedule: Q01DX009 (ip), vehicle: saline with Tween-80
[15] = dose: 25.0 mg/kg/injection, schedule: Q01DX009 (ip), vehicle: other
[16] = dose: 400.0 mg/kg/injection, schedule: Q01DX009 (ip), vehicle: saline with Tween-80

Measured: T/C

C[N+]12CCC34C5=CC(=O)C(=O)C=C5[N+]5(C)C(=O)CC6OCC=C(C1)C(CC32)C6C45 (stereo not given)
inactive: dose: 7.5 mg/kg/injection, schedule: Q01DX005 (ip), vehicle: saline 102 % of control | dose: 15.0 mg/kg/injection, schedule: Q01DX005 (ip), vehicle: saline 104 % of control | [1] 97 % of control

O/N=C1/C(=N/O)N(c2ccccc2)CN1c1ccccc1
inactive: dose: 7.5 mg/kg/injection, schedule: Q01DX005 (ip), vehicle: Klucel (hydroxypropylcellulose) (HPC) 102 % of control | dose: 15.0 mg/kg/injection, schedule: Q01DX005 (ip), vehicle: Klucel (hydroxypropylcellulose) (HPC) 95 % of control | dose: 30.0 mg/kg/injection, schedule: Q01DX005 (ip), vehicle: Klucel (hydroxypropylcellulose) (HPC) 98 % of control

CC1(C)CCCC(C)(C)N1CC#CCON1C(=O)c2ccccc2C1=O
inactive: dose: 100.0 mg/kg/injection, schedule: Q04DX002 (ip), vehicle: Klucel (hydroxypropylcellulose) (HPC) 102 % of control | dose: 200.0 mg/kg/injection, schedule: Q04DX002 (ip), vehicle: Klucel (hydroxypropylcellulose) (HPC) 96 % of control | dose: 400.0 mg/kg/injection, schedule: Q04DX002 (ip), vehicle: Klucel (hydroxypropylcellulose) (HPC) 105 % of control

O=C(OC1C2COC(O2)C(OC(=O)c2ccccc2)C1OC(=O)c1ccccc1)c1ccccc1 (stereo not given)
inactive: [2] 104 % of control | [3] 101 % of control | [4] 104 % of control

CCN(CCO)CCNc1ccc(C)c2sc3cc(OC)ccc3c(=O)c12
inactive: [5] 102 % of control and 103 % of control and 107 % of control | [6] 106 % of control and 112 % of control and 117 % of control | [7] 103 % of control and 119 % of control | dose: 400.0 mg/kg/injection, schedule: Q01DX005 (ip), vehicle: saline with Tween-80 115 % of control

N#Cc1c2c(c(N3CCCCC3)n3c1nc1ccccc13)CCC2
inactive: dose: 15.0 mg/kg/injection, schedule: Q01DX005 (ip), vehicle: saline with Tween-80 98 % of control | dose: 30.0 mg/kg/injection, schedule: Q01DX005 (ip), vehicle: saline with Tween-80 102 % of control | [8] 91 % of control and 95 % of control

CCOC(=O)N1CCN(C(=S)NNC(C)c2cc3ccccc3cn2)CC1 (stereo not given)
inactive: [9] 103 % of control | [10] 113 % of control

C=C(Cl)CNc1ccccc1C(=O)OC
inactive: dose: 25.0 mg/kg/injection, schedule: Q04DX003 (ip), vehicle: Klucel (hydroxypropylcellulose) (HPC) 100 % of control | dose: 50.0 mg/kg/injection, schedule: Q04DX003 (ip), vehicle: Klucel (hydroxypropylcellulose) (HPC) 100 % of control and 103 % of control | dose: 100.0 mg/kg/injection, schedule: Q04DX003 (ip), vehicle: Klucel (hydroxypropylcellulose) (HPC) 100 % of control and 110 % of control | dose: 200.0 mg/kg/injection, schedule: Q04DX003 (ip), vehicle: Klucel (hydroxypropylcellulose) (HPC) 103 % of control and 106 % of control | dose: 400.0 mg/kg/injection, schedule: Q04DX003 (ip), vehicle: Klucel (hydroxypropylcellulose) (HPC) 100 % of control and 108 % of control

CC(=O)OC[C@@]1(C)[C@@H]2CC[C@]3(C)[C@H](C(=O)C=C4[C@@H]5CC(C)(C)CC[C@]5(C(=O)O)CC[C@]43C)[C@@]2(C)CC[C@@H]1OC(C)=O
inactive: [11] 108 % of control | [5] 87 % of control and 95 % of control | [6] 93 % of control

O=C(N/N=C/c1ccccn1)N/N=C/c1ccccn1
inactive: dose: 12.5 mg/kg/injection, schedule: Q01DX009 (ip), vehicle: distilled water + Tween-80 102 % of control | dose: 25.0 mg/kg/injection, schedule: Q01DX009 (ip), vehicle: distilled water + Tween-80 103 % of control | dose: 50.0 mg/kg/injection, schedule: Q01DX009 (ip), vehicle: distilled water + Tween-80 113 % of control | dose: 100.0 mg/kg/injection, schedule: Q01DX009 (ip), vehicle: distilled water + Tween-80 104 % of control

CN1CCC(O)(c2ccccc2)C(Br)C1 (stereo not given)
inactive: [1] 100 % of control and 106 % of control | dose: 60.0 mg/kg/injection, schedule: Q01DX005 (ip), vehicle: saline 100 % of control and 105 % of control and 110 % of control | dose: 120.0 mg/kg/injection, schedule: Q01DX005 (ip), vehicle: saline 100 % of control and 116 % of control

CC(=O)Nc1ccc(-c2csc(Nc3ccnc4cc(Cl)ccc34)n2)cc1
inactive: [5] 93 % of control and 95 % of control | [6] 92 % of control | [7] 90 % of control and 92 % of control

Cc1nccnc1NN=O
inactive: dose: 3.12 mg/kg/injection, schedule: Q01DX009 (ip), vehicle: water 101 % of control | dose: 6.25 mg/kg/injection, schedule: Q01DX009 (ip), vehicle: water 104 % of control | dose: 12.5 mg/kg/injection, schedule: Q01DX009 (ip), vehicle: water 111 % of control and 113 % of control | dose: 100.0 mg/kg/injection, schedule: Q01DX009 (ip), vehicle: water 87 % of control

CCN(CC)C(=S)n1nc(C)c(N=Nc2cccc(Cl)c2Cl)c1C
inactive: [9] 103 % of control | [10] 97 % of control | [11] 93 % of control | [6] 91 % of control | [7] 94 % of control

CCOc1nc(=O)[nH]c2c1CCCC2
inactive: dose: 60.0 mg/kg/injection, schedule: Q01DX005 (ip), vehicle: Klucel (hydroxypropylcellulose) (HPC) 98 % of control | dose: 120.0 mg/kg/injection, schedule: Q01DX005 (ip), vehicle: Klucel (hydroxypropylcellulose) (HPC) 98 % of control

Cc1nc(NC(=O)C(C)(C)C)sc1[N+](=O)[O-]
inactive: [12] 101 % of control | [13] 92 % of control | [14] 94 % of control

C=CCOC(=O)C1=C(O[Si]C(C)(C)C)CCCC1
inactive: [12] 96 % of control | [13] 99 % of control | [14] 109 % of control

COc1cccc2c1C(=O)c1c(O)c3c(c(O)c1C2=O)CC(O)(C(=O)CO)CC3OC1CC(N)C(O)C(C)O1 (stereo not given) (tested in a mixture with another compound)
inactive: dose: 6.25 mg/kg/injection, schedule: Q01DX009 (ip), vehicle: other 115 % of control | [15] 89 % of control

C=CCN(CC=C)c1cc(NN)nnc1Cl
inactive: [15] 102 % of control | dose: 50.0 mg/kg/injection, schedule: Q01DX009 (ip), vehicle: other 105 % of control

N#Cc1cc2ccccc2n(Cc2ccccc2)c1=O
inactive: [2] 101 % of control | [3] 109 % of control | [4] 100 % of control

N#CC1c2ccccc2C=CN1C(=O)CCCl (stereo not given)
inactive: dose: 50.0 mg/kg/injection, schedule: Q01DX009 (ip), vehicle: Klucel (hydroxypropylcellulose) (HPC) 106 % of control | dose: 100.0 mg/kg/injection, schedule: Q01DX009 (ip), vehicle: Klucel (hydroxypropylcellulose) (HPC) 108 % of control | dose: 200.0 mg/kg/injection, schedule: Q01DX009 (ip), vehicle: Klucel (hydroxypropylcellulose) (HPC) 108 % of control

CCCCNC(=S)S
inactive: [13] 109 % of control | [14] 109 % of control | [16] 104 % of control

COC(=O)/C=C/C=C(c1ccccc1)c1ccccc1
inactive: [12] 99 % of control | [13] 104 % of control | [14] 106 % of control | [16] 113 % of control

C=C(CC)C(=O)OCC
inactive: dose: 50.0 mg/kg/injection, schedule: Q01DX009 (ip), vehicle: saline 95 % of control | dose: 100.0 mg/kg/injection, schedule: Q01DX009 (ip), vehicle: saline 102 % of control | dose: 200.0 mg/kg/injection, schedule: Q01DX009 (ip), vehicle: saline 104 % of control

C[CH2][Sn]([O][Sn]([Cl])([CH2]C)[c]1ccccc1)[c]1ccccc1 (stereo not given)
inactive: dose: 3.12 mg/kg/injection, schedule: Q01DX005 (ip), vehicle: Klucel (hydroxypropylcellulose) (HPC) 118 % of control | dose: 6.25 mg/kg/injection, schedule: Q01DX005 (ip), vehicle: Klucel (hydroxypropylcellulose) (HPC) 101 % of control | dose: 12.5 mg/kg/injection, schedule: Q01DX005 (ip), vehicle: Klucel (hydroxypropylcellulose) (HPC) 101 % of control

COC(=O)C1=C(C(=O)OC)CC(n2nnc(C(=O)OC)c2C(=O)OC)=CC1
inactive: [8] 92 % of control | dose: 120.0 mg/kg/injection, schedule: Q01DX005 (ip), vehicle: saline with Tween-80 101 % of control | dose: 240.0 mg/kg/injection, schedule: Q01DX005 (ip), vehicle: saline with Tween-80 99 % of control

NC1=NCCCN1
inactive: dose: 3.0 mg/kg/injection, schedule: Q01DX009 (ip), vehicle: saline 95 % of control | dose: 6.0 mg/kg/injection, schedule: Q01DX009 (ip), vehicle: saline 104 % of control | dose: 12.0 mg/kg/injection, schedule: Q01DX009 (ip), vehicle: saline 90 % of control
